Data reported in ChEMBL document CHEMBL1146716, “(4-Piperidinylphenyl)aminoethyl amides as a novel class of non-covalent cathepsin K inhibitors” (Bioorg Med Chem Lett, 2004).
Peptide text beside a SMILES is read from it. * marks the point of attachment. Cbz = O=C(OCc1ccccc1)*

Key:
[1] = target: T1, Cathepsin K (Homo sapiens, UniProt P43235); test: Inhibitory activity against recombinant human cathepsin K
T1 sequence (P43235 whole entry): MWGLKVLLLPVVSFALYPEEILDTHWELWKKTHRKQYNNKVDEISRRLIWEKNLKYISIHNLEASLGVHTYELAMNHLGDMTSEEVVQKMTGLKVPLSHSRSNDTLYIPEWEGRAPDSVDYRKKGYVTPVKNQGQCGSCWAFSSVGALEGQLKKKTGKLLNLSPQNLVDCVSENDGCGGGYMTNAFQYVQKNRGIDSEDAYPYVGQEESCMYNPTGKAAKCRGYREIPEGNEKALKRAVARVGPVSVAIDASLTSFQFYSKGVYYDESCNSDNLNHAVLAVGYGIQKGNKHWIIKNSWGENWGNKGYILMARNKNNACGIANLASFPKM

[2] = organism: Mus musculus; test: Inhibitory activity against bone resorption in mouse; assay type: functional
[3] = target: T2, Procathepsin L (Homo sapiens, UniProt P07711); test: Inhibitory activity against recombinant human cathepsin L
T2 sequence (P07711 whole entry): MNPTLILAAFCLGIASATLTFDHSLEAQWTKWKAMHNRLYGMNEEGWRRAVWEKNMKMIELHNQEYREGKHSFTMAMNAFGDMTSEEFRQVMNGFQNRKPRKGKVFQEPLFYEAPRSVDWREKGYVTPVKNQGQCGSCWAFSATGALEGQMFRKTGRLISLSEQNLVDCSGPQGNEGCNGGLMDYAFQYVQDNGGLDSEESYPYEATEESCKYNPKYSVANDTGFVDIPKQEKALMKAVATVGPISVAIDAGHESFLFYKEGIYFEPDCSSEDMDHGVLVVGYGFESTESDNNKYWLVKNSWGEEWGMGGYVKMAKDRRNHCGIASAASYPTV

[4] = target: Cathepsin B (Homo sapiens, UniProt P07858); test: Inhibitory activity against recombinant human cathepsin B
[5] = organism: Homo sapiens; test: Inhibitory activity against bone resorption in human; assay type: functional; settings: Bone element
[6] = target: T2, Procathepsin L; test: Inhibitory activity against recombinant human cathepsin L (1.2 nM)

Structure (SMILES)	IC50 [1]	IC50 [2]	IC50 [3]	Ki [4]	IC50 [5]	IC50 [6]
CC(C)[C@@H](NC(=O)OCc1ccccc1)C(=O)N[C@@H](CCc1ccccc1)CNc1ccc(N2CCCCC2)cc1	4 nM	330 nM	1 nM	7 nM	560 nM	
CC(C)C[C@@H](NC(=O)OCc1ccccc1)C(=O)N[C@@H](CCc1ccccc1)CNc1ccc(N2CCCCC2)cc1	5 nM		2 nM	658 nM		
CC(C)C[C@H](NC(=O)OCc1ccccc1)C(=O)N[C@H](CNc1ccc(-c2ccccc2)cc1)Cc1ccccc1	706 nM		32 nM			
O=C(N[C@H](Cc1ccccc1)C(=O)N[C@@H](CCc1ccccc1)CNc1ccc(N2CCCCC2)cc1)OCc1ccccc1	3 nM		1 nM	167 nM		
CSCC[C@@H](C=O)NC(=O)[C@H](CC(C)C)NC(=O)OCc1ccccc1 (Cbz-Leu-Met-aldehyde)			1.3 nM			5 nM
CC(C)C[C@H](NC(=O)OCc1ccccc1)C(=O)N[C@H](CNc1ccc(N2CCCCC2)cc1)Cc1ccccc1	10 nM	1000 nM	2 nM		1000 nM	
O=C(CNC(=O)OCc1ccccc1)N[C@@H](CCc1ccccc1)CNc1ccc(N2CCCCC2)cc1	> 10000 nM		> 10000 nM	> 10000 nM		
CC(C)C[C@H](NC(=O)OCc1ccccc1)C(=O)N[C@H](C=O)Cc1ccccc1 (Cbz-Leu-Phe-aldehyde)			20 nM			
CSCC[C@@H](NC(=O)OCc1ccccc1)C(=O)N[C@@H](CCc1ccccc1)CNc1ccc(N2CCCCC2)cc1	3 nM		36 nM	12 nM		
C[C@@H](NC(=O)OCc1ccccc1)C(=O)N[C@@H](CCc1ccccc1)CNc1ccc(N2CCCCC2)cc1	9 nM		4110 nM	2090 nM		
O=C(N[C@@H](CCc1ccccc1)CNc1ccc(N2CCCCC2)cc1)C1CCCN1C(=O)OCc1ccccc1 (stereo not given in full)	12 nM		7840 nM	> 10000 nM		
O=C(N[C@H](Cc1ccc(O)cc1)C(=O)N[C@@H](CCc1ccccc1)CNc1ccc(N2CCCCC2)cc1)OCc1ccccc1	8 nM		1 nM	106 nM		
O=C(N[C@H](CC1C=Nc2ccccc21)C(=O)N[C@@H](CCc1ccccc1)CNc1ccc(N2CCCCC2)cc1)OCc1ccccc1 (stereo not given in full)	48 nM		1 nM	3360 nM		
CC(C)C[C@H](NC(=O)OCc1ccccc1)C(=O)N[C@H](CNc1ccccc1)Cc1ccccc1	1100 nM		230 nM			
O=C(N[C@H](CCc1ccccc1)C(=O)N[C@@H](CCc1ccccc1)CNc1ccc(N2CCCCC2)cc1)OCc1ccccc1	14 nM		9 nM	9660 nM		
CC(C)C[C@H](NC(=O)OCc1ccccc1)C(=O)N[C@H](CNc1ccc(N2CCOCC2)cc1)Cc1ccccc1	15 nM		2 nM			
